Tested on: IL-8 secretion induced by LPS in peripheral blood neutrophils
Assay: Inhibition of IL-8 secretion induced by LPS in isolated peripheral blood neutrophils (ELISA)
Type: cell-based
Conditions: Homo sapiens, Neutrophil; for inhibition at 10 pM: single agent at 0.01 nM
Procedure: 5 Healthy subjects were included for leukocyte experiments. Pulmonary function tests (forced spirometry) and arterial blood gas measurements were performed during the days prior to sample.
Neutrophils were isolated from peripheral blood of healthy volunteers according to standard procedures established in the laboratory (Milara J et al., Respiration 2012; 83, 147-158).
Isolated neutrophils were incubated with different drugs (MABA compound, mometasone or fluticasone) or vehicle for 30 minutes before incubation with LPS (1 mcg/mL) (Lipopolysaccharide, a representative stimulus as inflammatory mediator) for 6 hours in standard cell culture conditions (37° C. and 5% CO2). Supernatant were collected to measure IL-8 (the inflammatory marker).
IL-8 (Interleukin-8) was determined by ELISA according to the standard procedure.
Data was presented as mean±SEM (see FIG. 1 and FIG. 2). Statistical analysis of results was carried out by analysis of variance (ANOVA) followed by Bonferroni test, by Student's t test, or by non-parametric tests as appropriate (GraphPad Software Inc, San Diego, Calif., USA). Significance was accepted when P<0.05.

[1] = 30 min pre-incubation, LPS 1 mcg/mL 6 h, neutrophils from healthy subjects (5 volunteers in triplicate), Table 1

**Q.** Which inhibition at 0.0001 µM (single agent at 0.1 nM, LPS-induced IL-8 secretion, neutrophils from healthy subjects, Table 2) does the source give for C[C@@H]1C[C@H]2[C@@H]3C[C@H](F)C4=CC(=O)C=C[C@]4(C)[C@@]3(F)[C@@H](O)C[C@]2(C)[C@@]1(O)C(=O)SCF [Fluticasone, fluticasone] here?
**A.** The inhibition at 0.0001 µM was 10.2%.

**Q.** Which inhibition at 10 pM [1] does the source give for C[C@@H]1C[C@H]2[C@@H]3CCC4=CC(=O)C=C[C@]4(C)[C@@]3(Cl)[C@@H](O)C[C@]2(C)[C@@]1(O)C(=O)CCl [Mometasone, mometasone] here?
**A.** The inhibition at 10 pM was 2.85%.

**Q.** What does the source list for CN(CCCn1nnc2cc(CNC[C@H](O)c3ccc(O)c4[nH]c(=O)ccc34)ccc21)[C@H]1CC[C@H](OC(=O)C(O)(c2cccs2)c2cccs2)CC1 [Cpd 2, Trans-4-[{3-[5-({[(2R)-2-hydroxy-2-(8-hydroxy-2-oxo-1,2-dihydroquinolin-5-yl)ethyl]amino}methyl)-1H-1,2,3-benzotriazol-1-yl]propyl}(methyl)amino]cyclohexyl hydroxy(di-2-thienyl)acetate]?
**A.** inhibition at 10 pM [1]: 4.17%; inhibition at 10 pM (LPS-induced IL-8 secretion, neutrophils from healthy subjects, Table 2): 4.17%

Reference: patent US10456390B2, “Combinations comprising MABA compounds and corticosteroids” (ALMIRALL, S.A., priority 2013, dated 2019)
